Assays:
[1] = Drug accumulation in CD-1 mouse liver at 10 mg/kg,po measured at 0.083 to 24 hrs post administration by LC-MS/MS analysis; assay type: ADME, organism-based; conditions: in vivo, time 0.083-24 hrs
[2] = Half life in Sprague-Dawley rat at 10 mg/kg,po measured at 0.083 to 24 hrs post administration by LC-MS/MS analysis; assay type: ADME, organism-based; conditions: in vivo, time 0.083-24 hrs; for t1/2: po, 10 mg/kg; for half-life: Sprague-Dawley
[3] = Drug accumulation in Sprague-Dawley rat liver at 10 mg/kg,po measured at 0.083 to 24 hrs post administration by LC-MS/MS analysis; assay type: ADME, organism-based; conditions: in vivo, time 0.083-24 hrs
[4] = Tmax in Sprague-Dawley rat at 10 mg/kg,po measured at 0.083 to 24 hrs post administration by LC-MS/MS analysis; assay type: ADME, organism-based; conditions: in vivo, po, 10 mg/kg, time 0.083-24 hrs
[5] = Half life in CD-1 mouse at 10 mg/kg,po measured at 0.083 to 24 hrs post administration by LC-MS/MS analysis; assay type: ADME, organism-based; conditions: in vivo, time 0.083-24 hrs
[6] = Apparent volume of distribution at steady state in CD-1 mouse at 10 mg/kg,po measured at 0.083 to 24 hrs post administration by LC-MS/MS analysis; assay type: ADME, organism-based; conditions: in vivo, time 0.083-24 hrs
[7] = Cmax in CD-1 mouse at 10 mg/kg,po measured at 0.083 to 24 hrs post administration by LC-MS/MS analysis; assay type: ADME, organism-based; conditions: in vivo, time 0.083-24 hrs
Hepatitis B virus = assay: Antiviral activity against HBV infected in human HepG2.2.15 cells assessed as inhibition of HBsAg level incubated for 6 days by microplate-based chemiluminescence immunoassay; assay type: functional, organism-based; conditions: HepG2 2.2.15, 144 h
[8] = AUCinfinity in CD-1 mouse at 10 mg/kg,po measured at 0.083 to 24 hrs post administration by LC-MS/MS analysis; assay type: ADME, organism-based; conditions: in vivo, time 0.083-24 hrs
[9] = Clearance in CD-1 mouse liver microsomes at 0.3 uM pre-incubated for 10 mins followed by NADPH addition incubated for 60 mins by LC-MS/MS analysis; assay type: ADME, Microsome; conditions: time 70 min, read-out: CLH
[10] = Clearance in CD-1 mouse at 2 mg/kg,iv measured at 0.083 to 24 hrs post administration by LC-MS/MS analysis; assay type: ADME, organism-based; conditions: in vivo, time 0.083-24 hrs
[11] = Apparent volume of distribution at steady state in Sprague-Dawley rat at 10 mg/kg,po measured at 0.083 to 24 hrs post administration by LC-MS/MS analysis; assay type: ADME, organism-based; conditions: in vivo, time 0.083-24 hrs
HepG2 2.2.15 = assay: Cytotoxicity against human HepG2.2.15 cells by Cell-titer Glo luminescent assay; assay type: functional
[12] = Tmax in CD-1 mouse at 10 mg/kg,po measured at 0.083 to 24 hrs post administration by LC-MS/MS analysis; assay type: ADME, organism-based; conditions: in vivo, time 0.083-24 hrs
[13] = Oral bioavailability in Sprague-Dawley rat at 10 mg/kg measured at 0.083 to 24 hrs by LC-MS/MS analysis; assay type: ADME, organism-based; conditions: in vivo, time 0.083-24 hrs; for F: po, 10 mg/kg
[14] = AUCinfinity in Sprague-Dawley rat at 10 mg/kg,po measured at 0.083 to 24 hrs post administration by LC-MS/MS analysis; assay type: ADME, organism-based; conditions: in vivo, time 0.083-24 hrs; for AUC: po, 10 mg/kg
[15] = Oral bioavailability in CD-1 mouse at 10 mg/kg measured at 0.083 to 24 hrs by LC-MS/MS analysis; assay type: ADME, organism-based; conditions: in vivo, time 0.083-24 hrs
[16] = Cmax in Sprague-Dawley rat at 10 mg/kg,po measured at 0.083 to 24 hrs post administration by LC-MS/MS analysis; assay type: ADME, organism-based; conditions: in vivo, time 0.083-24 hrs
[17] = Clearance in human liver microsomes at 0.3 uM pre-incubated for 10 mins followed by NADPH addition incubated for 60 mins by LC-MS/MS analysis; assay type: ADME, Microsome; conditions: time 70 min, read-out: CLH
[18] = Drug accumulation in CD-1 mouse plasma assessed as fold change in drug uptake at 10 mg/kg,po measured at 0.083 to 24 hrs post administration by LC-MS/MS analysis; assay type: ADME, organism-based; conditions: in vivo, time 0.083-24 hrs
[19] = Half life in CD-1 mouse at 2 mg/kg,iv measured at 0.083 to 24 hrs post administration by LC-MS/MS analysis; assay type: ADME, organism-based; conditions: in vivo, time 0.083-24 hrs
[20] = Drug accumulation in Sprague-Dawley rat plasma assessed as fold change in drug uptake at 10 mg/kg,po measured at 0.083 to 24 hrs post administration by LC-MS/MS analysis; assay type: ADME, organism-based; conditions: in vivo, time 0.083-24 hrs
[21] = AUCinfinity in Sprague-Dawley rat at 2 mg/kg,iv measured at 0.083 to 24 hrs post administration by LC-MS/MS analysis; assay type: ADME, organism-based; conditions: in vivo, time 0.083-24 hrs
[22] = Drug accumulation in Sprague-Dawley rat liver assessed as fold change in drug uptake at 10 mg/kg,po measured at 0.083 to 24 hrs post administration by LC-MS/MS analysis; assay type: ADME, organism-based; conditions: in vivo, time 0.083-24 hrs
[23] = Apparent volume of distribution at steady state in Sprague-Dawley rat at 2 mg/kg,iv measured at 0.083 to 24 hrs post administration by LC-MS/MS analysis; assay type: ADME, organism-based; conditions: in vivo, time 0.083-24 hrs, read-out: Vdss(app)
[24] = Cmax in CD-1 mouse at 2 mg/kg,iv measured at 0.083 to 24 hrs post administration by LC-MS/MS analysis; assay type: ADME, organism-based; conditions: in vivo, time 0.083-24 hrs
[25] = Apparent volume of distribution at steady state in CD-1 mouse at 2 mg/kg,iv measured at 0.083 to 24 hrs post administration by LC-MS/MS analysis; assay type: ADME, organism-based; conditions: in vivo, time 0.083-24 hrs, read-out: Vdss(app)
[26] = Cmax in Sprague-Dawley rat at 2 mg/kg,iv measured at 0.083 to 24 hrs post administration by LC-MS/MS analysis; assay type: ADME, organism-based; conditions: in vivo, time 0.083-24 hrs
[27] = Clearance in Sprague-Dawley rat at 2 mg/kg,iv measured at 0.083 to 24 hrs post administration by LC-MS/MS analysis; assay type: ADME, organism-based; conditions: in vivo, time 0.083-24 hrs
[28] = Half life in Sprague-Dawley rat at 2 mg/kg,iv measured at 0.083 to 24 hrs post administration by LC-MS/MS analysis; assay type: ADME, organism-based; conditions: in vivo, time 0.083-24 hrs
[29] = Drug accumulation in CD-1 mouse liver assessed as fold change in drug uptake at 10 mg/kg,po measured at 0.083 to 24 hrs post administration by LC-MS/MS analysis; assay type: ADME, organism-based; conditions: in vivo, time 0.083-24 hrs
[30] = AUCinfinity in CD-1 mouse at 2 mg/kg,iv measured at 0.083 to 24 hrs post administration by LC-MS/MS analysis; assay type: ADME, organism-based; conditions: in vivo, time 0.083-24 hrs

Row | Structure (SMILES) | half-life [5] | Cmax [7] | EC50 (Hepatitis B virus) | AUC(0-inf) [8] | microsomal CLint at 0.3 µM [9] | clearance [10] | CC50 (HepG2 2.2.15) | F [13] | AUC [14] | bioavailability [15] | microsomal CLint at 0.3 µM [17] | also measured
1 | COCCCOc1cc2c(cc1C1CC1)-c1cc(=O)c(C(=O)O)cn1[C@H](C(C)C)CO2 | 0.9 h | 0.914 µg/mL | 0.006 µM | 8.41 µg·h/mL | 1 µL/min/mg | 0.84 L/h/kg | 42 µM | 13% | 3.95 µg·h/mL | 69% | – | Ct [1]: 575 ng/g; t1/2 [2]: 1 h; Ct [3]: 20 ng/g; Tmax [4]: 3.1 h; Vdss(app) [6]: 0.8 L/kg; Vdss(app) [11]: 0.3 L/kg; Tmax [12]: 4.8 h; Cmax ([16]; po, 10 mg/kg): 0.488 µg/mL
2 | CCc1cc2c(cc1OCCCOC)OC[C@@H](C(C)C)n1cc(C(=O)O)c(=O)cc1-2 | 0.8 h | 0.844 µg/mL | 0.006 µM | 7.08 µg·h/mL | 10 µL/min/mg | 1.26 L/h/kg | 33 µM | 24% | 2.86 µg·h/mL | 91% | – | Ct [1]: 5 ng/g; t1/2 [2]: 2.7 h; Ct [3]: 47 ng/g; Tmax [4]: 3.3 h; Vdss(app) [6]: 1.1 L/kg; Vdss(app) [11]: 0.9 L/kg; Tmax [12]: 2.4 h; Cmax ([16]; po, 10 mg/kg): 0.351 µg/mL
3 | CC(C)[C@@H]1COc2cc(OCC(F)(F)F)c(Cl)cc2-c2cc(=O)c(C(=O)O)cn21 | – | – | 0.087 µM | – | – | – | 36 µM | – | – | – | 4 µL/min/mg | –
4 | COCCCOc1cc2c(nc1OC)-c1cc(=O)c(C(=O)O)cn1[C@](C)(C(C)(C)C)C2 | 3.7 h | 0.653 µg/mL | 0.001 µM | 4.36 µg·h/mL | – | 1.74 L/h/kg | 41 µM | 56% | 1.666 µg·h/mL | 92% | – | fold change (FC) [18]: 4; half-life [2]: 5.2 h; half-life [19]: 1.7 h; fold change (FC) [20]: 7.4; AUC ([21]; iv, 2 mg/kg): 1.199 µg·h/mL; fold change (FC) [22]: 35; Vd [23]: 3.1 L/kg; Cmax [24]: 0.834 µg/mL; Vd [25]: 4 L/kg; Cmax [26]: 1.68 µg/mL; clearance [27]: 2.4 L/h/kg; half-life [28]: 2.9 h; fold change (FC) [29]: 41; AUC(0-inf) [30]: 0.914 µg·h/mL; Cmax ([16]; Sprague-Dawley, read-out: Cmax): 0.274 µg/mL
5 | COCCCOc1cc2c(cc1C)-c1cc(=O)c(C(=O)O)cn1[C@H](C(C)C)CO2 | – | – | 0.039 µM | – | 4 µL/min/mg | – | 39 µM | – | – | – | 8 µL/min/mg | –
6 | COCCCCOc1cc2c(cc1Cl)-c1cc(=O)c(C(=O)O)cn1[C@H](C(C)C)CO2 | – | – | 0.016 µM | – | 1 µL/min/mg | – | 43 µM | – | – | – | – | –
7 | COCCCOc1cc2c(nc1OC)-c1cc(=O)c(C(=O)O)cn1[C@](C)(C(C)C)C2 | 4.5 h | 0.639 µg/mL | 0.008 µM | 4.16 µg·h/mL | – | 3.3 L/h/kg | > 50 µM | – | – | 136% | – | fold change (FC) [18]: 0.1; half-life [2]: 4.4 h; half-life [19]: 1.5 h; fold change (FC) [20]: 2.7; AUC(0-inf) ([21]; Sprague-Dawley): 1.57 µg·h/mL; fold change (FC) [22]: 15; Vd [23]: 2.7 L/kg; Cmax [24]: 0.47 µg/mL; Vd [25]: 4 L/kg; Cmax [26]: 1.59 µg/mL; clearance [27]: 1.32 L/h/kg; half-life [28]: 4.4 h; bioavailability ([13]; Sprague-Dawley): 82%; fold change (FC) [29]: 1; AUC(0-inf) ([14]; Sprague-Dawley): 6.48 µg·h/mL; AUC(0-inf) [30]: 0.615 µg·h/mL; Cmax ([16]; Sprague-Dawley, read-out: Cmax): 0.965 µg/mL
8 | CC(C)[C@@H]1COc2cc(OCCCO)c(Cl)cc2-c2cc(=O)c(C(=O)O)cn21 | – | – | 0.019 µM | – | 6 µL/min/mg | – | > 50 µM | – | – | – | 4 µL/min/mg | –

— ChEMBL document CHEMBL5537169, “Structure-Activity Relationships and Discovery of (S)-6-Isopropyl-2-methoxy-3-(3-methoxypropoxy)-10-oxo-5,10-dihydro-6H-pyrido[1,2-h][1,7]naphthyridine-9-carboxylic Acid (AB-452), a Novel Orally Available HBV RNA Destabilizer” (J Med Chem, 2024)
